Among the data in ChEMBL document CHEMBL1124648, “Synthesis and biological activity of photoactive derivatives of erythromycin” (J Med Chem, 1989) are inhibition values, retold here.

In experiment [1] the test system is Nucleic Acid. As to conditions: at 10 µM.
Description: Inhibition of N-acetylphenylalanine-tRNA peptide bond formation by fragment reaction at 10e-5 M
Experiment [2] deals with Nucleic Acid. As to conditions: at 1 µM.
Description: Inhibition of N-acetylphenylalanine-tRNA peptide bond formation by puromycin reaction at 10E-6 M
Experiment [3] deals with Nucleic Acid. As to conditions: at 10 µM. The source holds these as a separate data set.
Description: Inhibition of N-acetylphenylalanine-tRNA peptide bond formation by puromycin reaction at 10E-5 M

Regarding `CC[C@H]1OC(=O)[C@H](C)[C@@H](O[C@H]2C[C@@](C)(OC)[C@@H](O)[C@H](C)O2)[C@H](C)[C@@H](O[C@@H]2O[C@H](C)C[C@H](N(C)C)[C@H]2O)[C@@](C)(O)C[C@@H](C)[C@H](NC(=O)CCCOc2ccc([N+](=O)[O-])cc2OC)[C@H](C)[C@@H](O)[C@]1(C)O`, the values for the inhibition in experiment [1], in experiment [2] and in experiment [3] were 11%, 13% and 25%, respectively.

With `CC[C@H]1OC(=O)[C@H](C)[C@@H](O[C@H]2C[C@@](C)(OC)[C@@H](O)[C@H](C)O2)[C@H](C)[C@@H](O[C@@H]2O[C@H](C)C[C@H](N(C)C)[C@H]2O)[C@@](C)(O)C[C@@H](C)[C@H](NC(=O)COc2cc(N=[N+]=[N-])ccc2CO)[C@H](C)[C@@H](O)[C@]1(C)O`, the inhibition is 0% in experiment [1], 15% in experiment [2] and 23% in experiment [3].

With SPIRAMYCIN, the inhibition came to 48% in experiment [1], 53% in experiment [2] and 85% in experiment [3].

Consider `CC[C@H]1OC(=O)[C@H](C)[C@@H](O[C@H]2C[C@@](C)(OC)[C@@H](O)[C@H](C)O2)[C@H](C)[C@@H](O[C@@H]2O[C@H](C)C[C@H](N(C)C)[C@H]2O)[C@@](C)(O)C[C@@H](C)[C@H](NC(=O)CNC(=O)CCCOc2ccc([N+](=O)[O-])cc2OC)[C@H](C)[C@@H](O)[C@]1(C)O`, for which the inhibition in experiment [1] came to 24%; in experiment [2], 18%; in experiment [3] it was 30%.
